Laboratory results published in patent US5380825A (Sigma Chemical Company, priority 1991, dated 1995).
Values after ≈ are worked out from the molar mass of the structure shown.

Experiments:
Format in all cases: binding
AZT antibodies = assay: Immunological activity / tracer performance in FPIA for AZT (qualitative); conditions: for inhibition in FPIA for AZT: inhibitor of polarization
Method: (§1) An equal volume of precipitation reagent was added per microcentrifuge tube. The tubes were centrifuged at greater than 9,000×g for 1 minute.
(§2) (2) A 17.5 ul sample of each serum extract was brought to approximately pH 7-8 by the addition of buffer.
(§3) (4) After an appropriate incubation time, the polarization of each reaction mixture was determined using a polarization spectrofluorimeter.

[1] = tested on: antisera to AZT, Rabbit 1 (immunized with AZT-3-V:BSA); assay: FPIA comparison of tracers, antiserum of Rabbit 1 (Table 1); conditions: for Polarization Units (P × 1000): 1 pmole of tracer, antiserum at the given titer; for ED50 AZT: concentration of AZT giving 50% reduction in polarization of this tracer relative to 0 tube; for Titer [Ab]: dilution of antiserum required to obtain the given polarization units with 1 pmole of tracer
Method: (§4) The immunogen (1 mg in 1 ml) was emulsified with an equal volume of Freund's Complete Adjuvant and injected intradermally into each of two female albino rabbits. The process was repeated in two weeks. Two weeks later, monthly subcutaneous booster injections were begun with 0.5 mg in 0.5 ml of the immunogen and 0.5 ml of Freund's Incomplete Adjuvant per animal. The rabbits were bled biweekly by a marginal ear vein technique beginning six weeks after the primary immunization. The blood collected was refrigerated, allowing clots to form, and the supernatant (antiserum) retained. The antiserum from each rabbit was collected and stored, either at -20° C. without preservative, or at 4° C. after addition of sodium azide to a final concentration of 0.1%. The same schedule was followed for each immunogen. Rabbits immunized produced antibodies to AZT.
(§5) Fluorescence Polarization Immunoassay for AZT
as §1, §2, §3
(§6) As further illustration of the invention polyclonal antibodies were raised in two rabbits by immunization with the conjugate of Example 4 (AZT-3-V:BSA) as is more fully described in Example 45 and stored at 4° C. with 0.1% sodium azide. A number of tracers were then compared as to their performance in FPIA using the antisera raised from two rabbits.
(§7) ^(1) TITER was defined as the dilution of antiserum (i.e., [Ab])
(§8) required to obtain the given polarization units (P × 1000) with 1
(§9) required to give a 50% reduction in polarization relative to a control (0
(§10) tube) containing no unlabeled AZT.

[2] = tested on: antisera to AZT, Rabbit 2 (immunized with AZT-3-V:BSA); assay: FPIA comparison of tracers, antiserum of Rabbit 2 (Table 1); conditions: for Polarization Units (P × 1000): 1 pmole of tracer, antiserum at the given titer; for ED50 AZT: concentration of AZT giving 50% reduction in polarization of this tracer relative to 0 tube; for Titer [Ab]: dilution of antiserum required to obtain the given polarization units with 1 pmole of tracer
Method: as §4, §5, §1, §2, §3, §6, §7, §8, §9, §10

Compound | immunological activity in FPIA for AZT (AZT antibodies; qualitative) | "cross-reactivity" relative to AZT in an AZT assay by FPIA (AZT antibodies; relative to AZT) | Polarization Units (P × 1000) [1] [P × 1000] | ED50 AZT [1] [µg/mL] | Titer [Ab] [1] | Polarization Units (P × 1000) [2] [P × 1000] | ED50 AZT [2] [µg/mL] | Titer [Ab] [2] | affinity and sensitivity as tracer (AZT antibodies; qualitative) | performance as tracer for determination of AZT by FPIA (AZT antibodies; qualitative) | inhibition in FPIA for AZT (AZT antibodies; qualitative)
3-carbethoxy-3'-azido-3'-deoxythymidine [Example 21] | immunologically active | approximately 110% |  |  |  |  |  |  |  |  | 
Cc1cn([C@H]2C[C@H](N=[N+]=[N-])[C@@H](CO)O2)c(=O)n(CCNc2nc(Cl)nc(Nc3ccc4c(c3)C(=O)OC43c4ccc(O)cc4Oc4cc(O)ccc43)n2)c1=O [AZT--(CH2)n --NH:DTAF, n=2] |  |  | 162 | 4.0 (≈ 5.2 µM) | 250 | 156 | > 8.0 | 125 |  |  | 
Cc1cn([C@H]2C[C@H](N=[N+]=[N-])[C@@H](CO)O2)c(=O)n(CCCCC(=O)Nc2ccc3c(c2)C(=O)OC32c3ccc(O)cc3Oc3cc(O)ccc32)c1=O [Example 6] | immunologically active |  | 179 | 4.0 (≈ 5.74 µM) | 300 | 175 | 8.0 (≈ 11.5 µM) | 130 |  |  | 
Cc1cn([C@H]2C[C@H](N=[N+]=[N-])[C@@H](CO)O2)c(=O)n(CCCCC(=O)NCCNC(=S)Nc2ccc3c(c2)C(=O)OC32c3ccc(O)cc3Oc3cc(O)ccc32)c1=O [Example 7, 5-[[5-(3'-azido-3'-deoxythymid-3-yl)-valeramido]-ethylthiocarbamyl]-fluorescein] |  |  |  |  | 1 | 197 | > 8.0 | 3 |  |  | 
Cc1cn([C@H]2C[C@H](N=[N+]=[N-])[C@@H](CO)O2)c(=O)n(CCCC(=O)Nc2ccc3c(c2)C(=O)OC32c3ccc(O)cc3Oc3cc(O)ccc32)c1=O [Example 13, 5-[4-(3'-azido-3'-deoxythymid-3-yl)-butyramido]-fluorescein] |  |  | 170 | 1.3 (≈ 1.9 µM) | 450 | 179 | 3.9 (≈ 5.71 µM) | 115 | satisfactory affinity and sensitivity |  | 
Cc1cn([C@H]2C[C@H](N=[N+]=[N-])[C@@H](CO)O2)c(=O)n(CCCC(=O)Nc2ccc3c(c2)C2(OC3=O)c3ccc(O)cc3Oc3cc(O)ccc32)c1=O [Example 14, 6-[4-(3'-azido-3'-deoxythymid-3-yl)-butyramido]-fluorescein] |  |  | 167 | 0.6 (≈ 0.879 µM) | 150 | 159 | 1.4 (≈ 2.05 µM) | 74 |  |  | 
Cc1cn([C@H]2C[C@H](N=[N+]=[N-])[C@@H](CO)O2)c(=O)n(CCCC(=O)NCCNC(=S)Nc2ccc3c(c2)C(=O)OC32c3ccc(O)cc3Oc3cc(O)ccc32)c1=O [Example 15, 5-[[4-(3'-azido-3'-deoxythymid-3-yl)-butyramido]-ethylthiocarbamyl]-fluorescein] | Immunological activity against AZT was confirmed |  | 165 | 4.0 (≈ 5.1 µM) | 200 | 184 | 4.0 (≈ 5.1 µM) | 73 |  |  | 
COC(=O)C(Cc1ccc(O)cc1)NC(=O)CCCn1c(=O)c(C)cn([C@H]2C[C@H](N=[N+]=[N-])[C@@H](CO)O2)c1=O (stereo partly drawn) [Example 16, 2-[4-(3'-azido-3'-deoxythymid-3-yl)-butyramido]-3-(4-hydroxyphenyl)-propionic acid methyl ester] | immunologically active |  |  |  |  |  |  |  |  |  | 
COc1nc(NCCn2c(=O)c(C)cn([C@H]3C[C@H](N=[N+]=[N-])[C@@H](CO)O3)c2=O)nc(Nc2ccc3c(c2)C(=O)OC32c3ccc(O)cc3Oc3cc(O)ccc32)n1 [Example 17, 3-[2-[4-(Fluoresceinyl-5)-6-methoxy-s-triazin-2-yl]aminoethyl]-3'-azido-3'-deoxythymidine] | immunologically active |  | 160 | 2.5 (≈ 3.27 µM) | 190 | 179 | 4.9 (≈ 6.41 µM) | 100 |  |  | 
Cc1cn([C@H]2C[C@H](N=[N+]=[N-])[C@@H](CO)O2)c(=O)n(CCCC(=O)NCC(=O)N[C@@H](Cc2ccc(O)cc2)C(=O)O)c1=O [Example 18, N-[4-(3'-azido-3'-deoxythymid-3-yl)-butyryl]-glycyl-L-tyrosine] | immunologically active |  |  |  |  |  |  |  |  |  | 
Cc1cn([C@H]2C[C@H](N=[N+]=[N-])[C@@H](CO)O2)c(=O)n(CC(=O)O)c1=O [Example 19, 3-carboxymethyl-3'-azido-3'-deoxythymidine] | immunological activity |  |  |  |  |  |  |  |  |  | 
Cc1cn([C@H]2C[C@H](N=[N+]=[N-])[C@@H](CO)O2)c(=O)n(CC(=O)Nc2ccc3c(c2)C(=O)OC32c3ccc(O)cc3Oc3cc(O)ccc32)c1=O [Example 22, 5-[2-(3'-azido-3'-deoxythymid-3-yl)-acetamido]-fluorescein] |  |  | 164 | 1.4 (≈ 2.14 µM) | 150 | 150 | 2.0 (≈ 3.06 µM) | 105 |  |  | 
Cc1cn([C@H]2C[C@H](N=[N+]=[N-])[C@@H](CO)O2)c(=O)n(CC(=O)NCCNC(=S)Nc2ccc3c(c2)C(=O)OC32c3ccc(O)cc3Oc3cc(O)ccc32)c1=O [Example 23, 5-[[2-(3'-azido-3'-deoxythymid-3-yl)-acetamido]-ethylthiocarbamyl]-fluorescein] |  |  | 173 | 2.4 (≈ 3.17 µM) | 53 | 164 | 1.4 (≈ 1.85 µM) | 28 |  |  | 
Cc1cn([C@H]2C[C@H](N=[N+]=[N-])[C@@H](CO)O2)c(=O)n(CCCN2C(=O)c3ccccc3C2=O)c1=O [Example 26, 3-(3-phthalimidopropyl)-3'-azido-3'-deoxythymidine] | immunologically active |  |  |  |  |  |  |  |  |  | 
Cc1cn([C@H]2C[C@H](N=[N+]=[N-])[C@@H](CO)O2)c(=O)n(CCCN)c1=O [Example 28, 3-(3-aminopropyl)-3'-azido-3'-deoxythymidine] | immunologically active |  |  |  |  |  |  |  |  |  | 
Cc1cn([C@H]2C[C@H](N=[N+]=[N-])[C@@H](CO)O2)c(=O)n(CCNC(=S)Nc2ccc3c(c2)C(=O)OC32c3ccc(O)cc3Oc3cc(O)ccc32)c1=O [Example 29, 5-[2-(3'-azido-3'-deoxythymid-3-yl)-ethyl-thiocarbamyl]fluorescein] |  |  | 180 | 3.9 (≈ 5.57 µM) | 150 | 177 | 2.9 (≈ 4.14 µM) | 58 |  | satisfactory tracer | 
Cc1cn([C@H]2C[C@H](N=[N+]=[N-])[C@@H](CO)O2)c(=O)n(CCCNC(=S)Nc2ccc3c(c2)C(=O)OC32c3ccc(O)cc3Oc3cc(O)ccc32)c1=O [Example 30, 5-[3-(3'-azido-3'-deoxythymid-3-yl)-propyl-thiocarbamyl]fluorescein] |  |  | 159 | > 4.0 | 80 | 170 | 4.0 (≈ 5.6 µM) | 80 |  | satisfactory tracer | 
Cc1cn([C@H]2C[C@H](N=[N+]=[N-])[C@@H](CO)O2)c(=O)n(CCNC(=O)CCc2ccc(O)cc2)c1=O [Example 33, 3-[2-[3-(4-hydroxyphenyl)-propionamido]-ethyl]-3'-azido-3'-deoxythymidine] |  |  |  |  |  |  |  |  |  |  | effective inhibitor of polarization
Cc1cn([C@H]2C[C@H](N=[N+]=[N-])[C@@H](CO)O2)c(=O)n(CCCNC(=S)Nc2ccc3c(c2)C2(OC3=O)c3cc(I)c(O)c(I)c3Oc3c2cc(I)c(O)c3I)c1=O [Example 36, 6-[3-(3 '-amido-3'-deoxythymid-3-yl)-propyl-thiocarbamyl]-erythrosin] | immunologically active |  |  |  |  |  |  |  |  |  | 
Cc1cn([C@H]2C[C@H](N=[N+]=[N-])[C@@H](COC(=O)CCC(=O)NCCNC(=S)Nc3ccc4c(c3)C(=O)OC43c4ccc(O)cc4Oc4cc(O)ccc43)O2)c(=O)[nH]c1=O [Example 42] | Immunoactivity of this label was demonstrated |  |  |  |  |  |  |  |  |  | 
O=C(O)CCc1ccc(O)cc1 [HPPA, 3-(4-hydroxyphenyl)propionic acid, reference compound] |  |  |  |  |  |  |  |  |  |  | unlike 3-(4-hydroxyphenyl)propionic acid (HPPA), was an effective inhibitor of polarization
